Laboratory results published in the Biogen ADME set (Fang et al. 2023).
≈ marks a conversion by molar mass, not a printed value.

Settings: for aqueous solubility: pH 6.8

| SMILES | MDR1-MDCK efflux ratio | intrinsic clearance, human liver microsomes [mL/min/kg] | intrinsic clearance, rat liver microsomes [mL/min/kg] | aqueous solubility [µg/mL] | fraction unbound, human plasma |
| --- | --- | --- | --- | --- | --- |
| CN(C)C1CN(c2nc(-c3cnccn3)nc3sc4c(c23)CCCC4)C1 | 1.17 | 92.5 | 2720 | 37 (≈ 101 µM) |  |
| COC(=O)[C@]12CCC(C)(C)CC1C1C(=O)C=C3[C@@]4(C)C=C(C#N)C(=O)C(C)(C)[C@@H]4CC[C@@]3(C)[C@]1(C)CC2 (some centres not stated) |  | 93.5 | 323 | 3.15 (≈ 6.23 µM) |  |
| COc1cc(OC)cc(N2CCC(NCC3(C)CCOCC3)CC2)c1 | 1.55 | ≤ 4.74 | 58.2 |  |  |
| N#Cc1cnn(-c2nc(-c3ccc(Br)s3)cs2)c1N |  |  |  | 1.9 (≈ 5.39 µM) |  |
| Cc1ccc(CNc2cncc(-n3nc(C)cc3C)n2)cn1 |  | 23.4 | 252 |  |  |
| COc1ccc(CN(C)C(=O)C2(C#N)CCC2)cc1 |  |  |  | 56.6 (≈ 219 µM) |  |
| CN1CCNc2nc3ccccc3nc21 | 0.671 | 74 | 143 |  |  |
| COc1ccc(OCC(=O)N2CCN(C)CC2)cc1 | 0.763 | ≤ 4.74 | 133 | 52.5 (≈ 199 µM) |  |
| CC(C)(C)c1cc(NS(=O)(=O)c2cccc(F)c2)cc(C(C)(C)C)c1 |  | 10 | 306 |  |  |
| Cc1nc(NCc2ccc(F)cc2)n(C)n1 | 0.975 | ≤ 4.74 | ≤ 10.7 |  |  |
| Cn1cc(C2CCN(CC(=O)N3CCc4sccc4C3)CC2)cn1 | 2.76 | ≤ 4.74 | 126 | 62 (≈ 180 µM) |  |
| CC(C)(C)c1cc(NC(=O)c2cccc3cn[nH]c23)[nH]n1 | 1.55 | 9.85 | 176 | 1.78 (≈ 6.28 µM) |  |
| CCC(=O)N(C)CC(=O)Nc1cccc(F)c1 | 0.705 | ≤ 4.74 | 12.2 | 44.8 (≈ 188 µM) |  |
| Cc1nnc(CN(C)Cc2cnn(C)c2C)s1 | 1.44 | ≤ 4.74 | 20 |  |  |
| O=c1n(CCn2ccnc2)nnn1-c1cccs1 | 0.738 | ≤ 4.74 | 55.6 |  |  |
| Cc1cccc2sc(NC(=O)C(C)(C)C)nc12 | 0.352 | 36.5 | 207 | 22.6 (≈ 91.1 µM) |  |
| CC(C)Nc1ccc(-c2cc3c(cc2CO)OCCO3)cn1 | 0.775 | 13.7 | 5720 |  |  |
| CCn1nccc1CNc1ncccn1 | 0.592 | ≤ 4.74 | ≤ 10.7 |  |  |
| CC1(CNC(=O)N2CCN(Cc3ccon3)CC2)CCCC1 | 2.07 | 7.42 | 308 |  |  |
| Nc1nnc(SCCSC2CCCCC2)n1C1CC1 | 3.81 | 48.5 | 582 |  |  |
| N#Cc1ccc(C(=O)N2CCCO2)nc1 | 0.487 | 37.6 | 1020 |  |  |
| CC(C)c1nsc(N2CCC(Nc3cccnc3)CC2)n1 | 0.816 | 26.3 | 403 |  |  |
| CSCCc1nc(-c2cc(C)nc3cc(F)ccc23)n(CCO)n1 | 21.8 | 16.9 | 147 | 24 (≈ 69.4 µM) |  |
| CCc1cnccc1C(=O)Nc1cnccn1 | 0.767 | ≤ 4.74 | 17.2 |  |  |
| O=C(NCC1(N2CCCCC2)CCCC1)c1cnn[nH]1 | 31.7 | ≤ 4.74 | ≤ 10.7 |  |  |
| Cc1cc(C(=O)N2CCOC(C)(C)C2)cc(C)c1OCc1cccnc1 | 2.18 | 270 | 2180 | 48.9 (≈ 138 µM) |  |
| CCC(C)(C)N1CCN(C(=O)NCCc2cc(C)no2)CC1 | 7.18 | ≤ 4.74 | 274 |  |  |

Continued, values first:

| MDR1-MDCK efflux ratio | intrinsic clearance, human liver microsomes [mL/min/kg] | intrinsic clearance, rat liver microsomes [mL/min/kg] | aqueous solubility [µg/mL] | fraction unbound, human plasma | SMILES |
| --- | --- | --- | --- | --- | --- |
| 0.471 | 104 | 465 | 30.2 (≈ 131 µM) |  | Cc1ccc(C(=O)C(=O)NC2CCCC2)cc1 |
| 0.65 | ≤ 4.74 |  |  | 0.0145 | Cc1nnc(-c2ccc(N3CCC(Oc4cc(F)ccc4Cl)CC3)nn2)o1 |
|  |  |  | 0.31 (≈ 1.06 µM) |  | O=C1NC(c2ccccc2)=N/C1=C/c1ccc2c(c1)OCO2 |
| 0.853 |  |  | 0.44 (≈ 1.08 µM) |  | CCOc1ccc(S(=O)(=O)N(CC)CC(=O)Nc2ccc3c(c2)OCO3)cc1 |
| 0.493 | 27.7 | 790 | 45.4 (≈ 139 µM) |  | Cc1ccc(CN2CC[C@H](c3nnc(-c4ccccc4F)o3)C2)o1 |
| 0.496 | 18.6 | 238 | 37.6 (≈ 133 µM) |  | Cc1cccc(NC2CCN(Cc3ccncc3)CC2)n1 |
| 1.3 | 24.6 | 463 |  |  | COc1ccccc1C(=O)CSc1nncn1C1CC1 |
| 46.8 | 8.66 | 28.4 |  |  | CNCc1cc(N(C)C)nc(C2CCCN2C(=O)C2CN(Cc3ccc(Cl)cc3)C2)n1 (configuration not stated) |
|  | 9.54 | 19.2 | 1.49 (≈ 3.17 µM) |  | O=C(Nc1ccccc1-c1cn2c(CN3CCNCC3)csc2n1)c1cnc2ccccc2n1 |
|  |  |  | 0.43 (≈ 1.06 µM) |  | CCC(C)(C)c1ccc(Oc2ccc(NC(=O)Nc3ccccc3OC)cc2)cc1 |
|  | 71.6 | 435 |  |  | CCN1CCc2c(sc(NC(=O)CS(=O)(=O)c3ccccc3)c2-c2nc3ccccc3s2)C1 |
| 37.4 | 9.96 | 90.9 | 59.5 (≈ 142 µM) |  | Cc1nc(CC2CCN(S(=O)(=O)c3cn(C)cn3)CC2)cc(NC2CCCC2)n1 |
| 1.48 | 447 | 1580 | 63.2 (≈ 151 µM) |  | COc1ccc(-c2ccc(CN(CCN3CCOCC3)Cc3cccnc3)cc2)cc1 |
| 5.49 | 113 | 1870 |  |  | CCCCOc1nc(N)c2c(n1)N(Cc1cccc(CN3CCCC3)c1)CC(=O)N2 |
| 21.2 | 6.43 | 149 |  |  | Cc1noc2ncnc(N3CCCN(C(=O)C4CC4)CC3)c12 |
|  | ≤ 4.74 | ≤ 10.7 | 57.3 (≈ 228 µM) |  | Cn1cc(C(=O)N2CCC(CC(=O)O)CC2)cn1 |

| MDR1-MDCK efflux ratio | intrinsic clearance, human liver microsomes [mL/min/kg] | intrinsic clearance, rat liver microsomes [mL/min/kg] | aqueous solubility [µg/mL] | fraction unbound, human plasma | SMILES |
| --- | --- | --- | --- | --- | --- |
| 1.61 | 30 | 389 | 13.6 (≈ 34.7 µM) |  | CN(C)c1ccc(C(=O)N2CCN3C(=O)N(Cc4ccccc4)C(=O)[C@H]3C2)cc1 |
| 3.06 | 14.9 | 95.1 | 1.95 (≈ 4.15 µM) |  | CNC(=O)c1ccccc1Nc1nc(Nc2ccc(N3CCOCC3)cc2OC)ncc1Cl |
|  |  |  | 0.81 (≈ 3.06 µM) |  | CN(C)c1nc(-c2cccc(-c3ccccc3)c2)n[nH]1 |
| 4.72 | 12.9 | 214 | 59.7 (≈ 160 µM) |  | COc1ccc(OC)c(-c2cc(C(=O)N3CCCN(C(C)=O)CC3)no2)c1 |
| 1.33 | ≤ 4.74 | 72.8 | 35.1 (≈ 103 µM) |  | Fc1ccc(F)c(-c2nc(C3CCOCC3)nn2-c2cccnc2)c1 |
| 14.5 | 26.7 | 187 | 6.53 (≈ 19.9 µM) |  | O=C1CCCc2c1[nH]c1cc(-n3ccnc3-c3ccncc3)ccc21 |
| 0.679 | 122 | 1920 | 32.9 (≈ 103 µM) |  | Cc1ccc2c(c1)c(Cn1ccnc1-c1cccc(C)n1)nn2C |
| 0.818 | 33.7 | 342 | 52.3 (≈ 168 µM) |  | COc1cccc(CC(=O)Nc2ccc3nc(C)sc3c2)c1 |
| 0.627 | 91.2 | 5070 |  |  | O=S(=O)(c1cccnc1)N1CCC2(Cc3ccccc3C2)C1 |
| 7.85 | 18.2 | 277 | 40.8 (≈ 107 µM) |  | COC(=O)c1ccc(NC(=O)N(C)Cc2ccccc2CN2CCCC2)cc1 |
| 2.56 | 90.3 | ≤ 10.7 | 31.8 (≈ 85.5 µM) |  | O=C(NC1=NS(=O)(=O)c2ccccc21)c1cc(-c2ccc(F)cc2)no1 |
|  | 127 | 87.3 |  |  | CN(C/C=C/C(=O)N1CCC[C@@H](n2nc(-c3ccc(Oc4ccccc4)cc3)c3c(N)ncnc32)C1)CCCCNC(=O)CCCC(=O)NCCCOCCOCCOCCCNC(=O)CCCC[C@@H]1SC[C@@H]2NC(=O)N[C@@H]21 |
|  | 16.1 | 195 | 12.7 (≈ 35.7 µM) |  | CC(C)c1ccc(NC(=O)Cn2cnc3c2c(=O)n(C)c(=O)n3C)cc1 |
| 0.586 | 426 | 6400 |  |  | O=C(CSc1ccccn1)N1CCSc2ccccc21 |
| 0.631 | 10.4 | 295 | 30.5 (≈ 131 µM) |  | O=C(CCCOc1ccccc1)N1CCCC1 |
